Reference: publication PMC6664820, “Novel natural and synthetic inhibitors of solute carriers SGLT1 and SGLT2” (Pharmacology Research & Perspectives, 2019)
Structures can show the parent of a compound that is named as a salt. Where two headings read alike, the source gives them in different places.

Assays:
CHO‐hSGLT1/2 cells = experiment: Cytotoxicity assay (ToxiLight, adenylate kinase leakage into CHO‐SGLT1/2 inhibition assay media); conditions: mean, at 50 mM (so in the source);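 note: bioluminescent read-out of adenylate kinase released from lysed cells into the medium, given relative to DMSO vehicle control defined as 0%, higher meaning more cytolysis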
hSGLT2 = biological target: T1, hSGLT2 (Homo sapiens, UniProt P31639); experiment: SGLT2 inhibition assay for validation of screening hits and similar compounds (1‐NBD‐glucose uptake, CHO‐hSGLT2 cells); format: cell-based; parameters: activity: dose or concentration left out as unconfirmed; conditions: for activity: compound, normalized 1-NBD-glucose uptake, CHO-hSGLT2 cells; for activity / remaining activity at 5 µM / remaining activity at 50 µM: mean; for SGLT2/SGLT1 ACTIVITY RATIO 5 uM Mean: ratio of normalized SGLT2 to SGLT1 activity at 5 uM; for remaining activity at 5 µM / remaining activity at 50 µM: 0.5 h, concentration not given, read-out: NORMALIZED SGLT2 ACTIVITY (%)
T1 sequence (P31639 1-672): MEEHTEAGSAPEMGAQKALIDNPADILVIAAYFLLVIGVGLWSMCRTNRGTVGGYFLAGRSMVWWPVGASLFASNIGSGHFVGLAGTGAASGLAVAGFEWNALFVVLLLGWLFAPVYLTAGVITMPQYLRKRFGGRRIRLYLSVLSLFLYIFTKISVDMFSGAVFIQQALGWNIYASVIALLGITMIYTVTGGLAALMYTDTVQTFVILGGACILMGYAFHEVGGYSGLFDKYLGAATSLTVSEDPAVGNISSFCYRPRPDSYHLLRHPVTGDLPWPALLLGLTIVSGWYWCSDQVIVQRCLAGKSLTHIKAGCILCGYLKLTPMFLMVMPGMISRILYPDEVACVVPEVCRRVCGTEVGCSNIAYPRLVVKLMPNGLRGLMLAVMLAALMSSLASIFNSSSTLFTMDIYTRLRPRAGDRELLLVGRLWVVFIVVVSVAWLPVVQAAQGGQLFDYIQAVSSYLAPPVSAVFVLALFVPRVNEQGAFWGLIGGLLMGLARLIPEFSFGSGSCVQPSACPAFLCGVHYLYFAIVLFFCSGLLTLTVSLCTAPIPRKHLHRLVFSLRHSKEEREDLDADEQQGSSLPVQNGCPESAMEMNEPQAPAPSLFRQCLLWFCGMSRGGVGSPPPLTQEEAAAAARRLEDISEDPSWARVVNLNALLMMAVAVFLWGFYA

SGLT1 = biological target: T2, SGLT1 (Homo sapiens, UniProt P13866); experiment: SGLT1 inhibition assay for validation of screening hits and similar compounds (1‐NBD‐glucose uptake, CHO‐hSGLT1 cells); format: cell-based; parameters: activity: dose or concentration left out as unconfirmed; conditions: for inhibition at 50 µM: read-out: SGLT1 inhibition; for activity: compound, normalized 1-NBD-glucose uptake, CHO-hSGLT1 cells; for activity / remaining activity at 5 µM / remaining activity at 50 µM: mean; for remaining activity at 5 µM / remaining activity at 50 µM: 0.5 h, concentration not given, read-out: NORMALIZED SGLT1 ACTIVITY (%)
T2 sequence (P13866 1-664): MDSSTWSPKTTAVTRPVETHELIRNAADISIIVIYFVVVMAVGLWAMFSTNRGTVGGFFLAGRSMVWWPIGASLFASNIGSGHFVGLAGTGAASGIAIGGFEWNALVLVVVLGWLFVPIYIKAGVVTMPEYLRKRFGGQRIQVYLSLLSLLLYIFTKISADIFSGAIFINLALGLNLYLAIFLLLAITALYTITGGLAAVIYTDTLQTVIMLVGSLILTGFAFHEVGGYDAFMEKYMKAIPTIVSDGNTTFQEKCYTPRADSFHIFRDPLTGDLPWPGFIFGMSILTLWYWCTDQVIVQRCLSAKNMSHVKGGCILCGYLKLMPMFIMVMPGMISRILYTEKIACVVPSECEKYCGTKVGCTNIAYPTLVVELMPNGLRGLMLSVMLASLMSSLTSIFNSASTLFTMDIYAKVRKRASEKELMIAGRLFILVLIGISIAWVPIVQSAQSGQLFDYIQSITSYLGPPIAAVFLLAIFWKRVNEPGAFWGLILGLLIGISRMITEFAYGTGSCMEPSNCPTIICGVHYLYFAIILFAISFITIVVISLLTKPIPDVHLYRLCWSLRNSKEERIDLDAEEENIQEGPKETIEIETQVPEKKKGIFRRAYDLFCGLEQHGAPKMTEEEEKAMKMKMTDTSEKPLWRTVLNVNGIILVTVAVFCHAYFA

[1] = mean inhibition with 50 μmol/L inhibitor

Structure (SMILES)	remaining activity at 5 µM (hSGLT2)	remaining activity at 50 µM (hSGLT2)	remaining activity at 5 µM (SGLT1)	remaining activity at 50 µM (SGLT1)	also measured
CN(C)CCN(Cc1cccs1)c1ccccn1 [Methapyrilene HCl]					CY[…] 50 mM (CHO‐hSGLT1/2 cells): -16
OC(CCN1CCCCC1)(c1ccccc1)C1CCCCC1 (stereo not drawn) [Trihexyphenidyl, trihexyphenidyl, reference compound]					IC50 (hSGLT2): 20 µM; IC50 (SGLT1): 12 µM; SGLT1/2 inhibition stated in words (SGLT1): novel SGLT1/2 inhibitors; inhibition at 50 µM (SGLT1): 69%
CN(C)CCOC(c1ccc(Cl)cc1)c1ccccn1 (stereo not drawn) [Carbinoxamine]					activity (hSGLT2): 100%; SGLT2/SGLT1 ACTIVITY RATIO 5 uM Mean (hSGLT2): 1.0; activity (SGLT1): 105%
Oc1c(I)cc(Cl)c2cccnc12 [Clioquinol, 5-Chloro-7-iodo-8-quinolinol]	107%	92%	107%	84%	
Clc1ccc(C(OCCN2CCCCC2)c2ccccc2)cc1 (stereo not drawn) [Cloperastine, cloperastine, reference compound]					IC50 (hSGLT2; 1‐NBD‐glucose uptake, CHO‐hSGLT2, mean of n biological replicates, or individual measurements where n=2, read-out: SGLT2‐IC50 Mean): 9 µM; IC50 (SGLT1; 1‐NBD‐glucose uptake, CHO‐hSGLT1, mean of n biological replicates, or individual measurements where n=2, read-out: SGLT1‐IC50 Mean): 9 µM; SGLT1/2 inhibition stated in words (SGLT1; SGLT1 and/or SGLT2, discussion statements): novel SGLT1/2 inhibitors; inhibition at 50 µM (SGLT1; [1]): 72%
Cc1cccc(C)c1NC(=O)CC12CCCN1CCC2 [Pilsicainide]	90%	78%	94%	89%	
CCCNC(C)C(=O)Nc1ccccc1C (stereo not drawn) [Prilocaine]	89%	76%	95%	86%	
CN1CCC(N2CC[C@H](c3nc4ccccc4o3)C2)CC1	102%	106%	117%	114%	
CC[C@H]1CN2CC[C@H]1C[C@H]2[C@H](O)c1ccnc2ccc(OC)cc12 [Dihydroquinine]	94%	58%	99%	63%	
Fc1ccccc1CN1CC[C@H](c2nnc(-c3ccco3)o2)C1	100%	94%	117%	117%	
COc1cc2oc(=O)ccc2cc1C[C@@H](O)C(C)(C)O [Peucedanol]					activity (hSGLT2): 95%; activity (SGLT1): 100%
C=C[C@H]1C[N@@]2CC[C@H]1C[C@@H]2[C@@H](O)c1ccnc2ccccc12 [Cinchonine]	111%	105%	121%	112%	
CC(=O)OC1C(OC(=O)C2(C)OC2C)c2c(ccc3ccc(=O)oc23)OC1(C)C (stereo not drawn)					activity (hSGLT2): 90%; SGLT2/SGLT1 ACTIVITY RATIO 5 uM Mean (hSGLT2): 0.9; activity (SGLT1): 102%
Oc1ccc(C=Cc2cc(O)cc3c2C(c2cc(O)cc(O)c2)C(c2ccc(O)cc2)O3)cc1 (stereo not drawn) [(−)‐ε‐viniferin]					inhibition at 50 µM (hSGLT2; [1]): 35%; SGLT2/SGLT1‐50μmol/L (ratio of SGLT2 to SGLT1 activities with 50 μmol/L inhibitor) (SGLT1): 0.6; SGLT1 inhibition (SGLT1; [1]): did not inhibit SGLT1
CN1CCC(C#N)(c2ccccc2)CC1	105%	102%	109%	105%	
CN1CCCCC1c1ccc(-c2cccnc2)nc1 (stereo not drawn) [Anabasamine]	103%	91%	114%	100%	
Cc1nc(-c2cccs2)cc([C@H]2CN3CC[C@H]2C[C@@H]3CO)n1	110%	103%	120%	115%	
